# US9730938B2, “Bruton's tyrosine kinase inhibitor combinations and uses thereof” (Pharmacyclics LLC, priority 2014, dated 2017)
# Legend:
# OCI-LY-10 [1] = assay: Combined drug treatment cell viability, CellTiter-Glo assay (Example 1); type: cell-based; settings: IDH1i 10 uM / MALT1i 5 uM / medium alone, 3 days
# Protocol: (§1) DLBCL cells at either 1×10^4 cells or 2×10^4 cells were plated onto each well of a 96-W plate (Table 1).
# (§2) The stock solutions for the IDH1 inhibitor AGI5198 and the MALT1 inhibitor MI-2 were each prepared at 50 mM concentration.
# (§3) The 96-W plate was then incubated for 3 days. Cell viability was examined using a CellTiter-Glo assay.
# (§4) A 40 μL of CellTiter-Glo reagent was added directly into each well of the 96-W plate. The plate was then shaken on a Shaker (Labsystem Wellmix) at speed 5 for 10-20 min at room temperature. Next, 100 μL of the mixed medium was transferred to a white, non-transparent, flat bottom 96-W plate for assaying. A Flexstation 3 luminometer was used for detecting and measuring the luminescent signals. Measurements were taken at room temperature.
# (§5) In general, the combination is described as synergistic (CI<1), additive (CI=1), or antagonistic (CI>1). Synergism is further separated into very strong synergism (<0.1), strong synergism (0.1-0.3), synergism (0.3-0.7), moderate synergism (0.7-0.85), and slight synergism (0.85-0.9).
# OCI-LY-3 [2] = assay: as above; type: cell-based; settings: IDH1i 10 uM / MALT1i 5 uM / medium alone, 3 days
# Protocol: as §1, §2, §3, §4, §5
# SU-DHL-2 [3] = assay: as above; type: cell-based; settings: IDH1i 10 uM / MALT1i 200 nM / medium alone, 3 days
# Protocol: as §1, §2, §3, §4, §5
# TMD8 [4] = assay: as above; type: cell-based; settings: IDH1i 10 uM / MALT1i 100 nM / medium alone, 3 days
# Protocol: as §1, §2, §3, §4, §5
# U2932 [5] = assay: as above; type: cell-based; settings: IDH1i 10 uM / MALT1i 200 nM / medium alone, 3 days
# Protocol: as §1, §2, §3, §4, §5
# TMD8 [6] = assay: Combined drug treatment cell viability, CellTiter-Glo assay (Example 2); type: cell-based; settings: JAK3 10 μM / MCL-1 3 μM / medium alone, 3 days
# OCI-LY-10 [7] = assay: as above; type: cell-based; settings: JAK3 10 μM / MCL-1 3 μM / medium alone, 3 days
# OCI-LY-3 [8] = assay: as above; type: cell-based; settings: JAK3 10 μM / MCL-1 3 μM / medium alone, 3 days
# HBL-1 = assay: as above; type: cell-based; settings: JAK3 10 μM / MCL-1 3 μM / medium alone, 3 days
# U2932 [9] = assay: as above; type: cell-based; settings: JAK3 10 μM / MCL-1 3 μM / medium alone, 3 days
# SU-DHL-2 [10] = assay: as above; type: cell-based; settings: JAK3 10 μM / MCL-1 3 μM / medium alone, 3 days
# [11] = tested on: TMD8 cells expressing PIM1-WT; assay: Cell growth of modified TMD8 cells treated with ibrutinib; settings: Homo sapiens
# [12] = tested on: TMD8 cells expressing PIM1 L2V; assay: as above; settings: Homo sapiens
# [13] = tested on: TMD8 cells expressing PIM1 P81S; assay: as above; settings: Homo sapiens
# [14] = tested on: TMD8 cells expressing PIM1 S97N; assay: as above; settings: Homo sapiens
compound,measurement,setting,value
"C=CC(=O)N1CCC[C@@H](n2nc(-c3ccc(Oc4ccccc4)cc3)c3c(N)ncnc32)C1 [ibrutinib, 1-((R)-3-(4-amino-3-(4-phenoxyphenyl)-1H-pyrazolo[3,4-d]pyrimidin-1-yl)piperidin-1-yl)prop-2-en-1-one]",luminescence (CellTiter-Glo),OCI-LY-10 [1]; ibrutinib 0.0256 nM,61548.88
same,luminescence (CellTiter-Glo),OCI-LY-10 [1]; ibrutinib 0.128 nM,68196.56
same,luminescence (CellTiter-Glo),OCI-LY-10 [1]; ibrutinib 0.64 nM,63983.91
same,luminescence (CellTiter-Glo),OCI-LY-10 [1]; ibrutinib 3.2 nM,51190.81
same,luminescence (CellTiter-Glo),OCI-LY-10 [1]; ibrutinib 16 nM,27324.38
same,luminescence (CellTiter-Glo),OCI-LY-10 [1]; ibrutinib 80 nM,23511.43
same,luminescence (CellTiter-Glo),OCI-LY-10 [1]; ibrutinib 400 nM,23784.91
same,luminescence (CellTiter-Glo),OCI-LY-10 [1]; ibrutinib 2000 nM,24452.84
same,luminescence (CellTiter-Glo),OCI-LY-10 [1]; ibrutinib 10000 nM,24826.24
same,luminescence (CellTiter-Glo),OCI-LY-3 [2]; ibrutinib 0.0256 nM,63957.70
same,luminescence (CellTiter-Glo),OCI-LY-3 [2]; ibrutinib 0.128 nM,59441.78
same,luminescence (CellTiter-Glo),OCI-LY-3 [2]; ibrutinib 0.64 nM,63322.70
same,luminescence (CellTiter-Glo),OCI-LY-3 [2]; ibrutinib 3.2 nM,66789.02
same,luminescence (CellTiter-Glo),OCI-LY-3 [2]; ibrutinib 16 nM,64655.70
same,luminescence (CellTiter-Glo),OCI-LY-3 [2]; ibrutinib 80 nM,68972.20
same,luminescence (CellTiter-Glo),OCI-LY-3 [2]; ibrutinib 400 nM,64472.02
same,luminescence (CellTiter-Glo),OCI-LY-3 [2]; ibrutinib 2000 nM,55749.79
same,luminescence (CellTiter-Glo),OCI-LY-3 [2]; ibrutinib 10000 nM,63477.51
same,luminescence (CellTiter-Glo),SU-DHL-2 [3]; ibrutinib 0.0256 nM,141202.0
same,luminescence (CellTiter-Glo),SU-DHL-2 [3]; ibrutinib 0.128 nM,146159.1
same,luminescence (CellTiter-Glo),SU-DHL-2 [3]; ibrutinib 0.64 nM,159399.0
same,luminescence (CellTiter-Glo),SU-DHL-2 [3]; ibrutinib 3.2 nM,161613.5
same,luminescence (CellTiter-Glo),SU-DHL-2 [3]; ibrutinib 16 nM,155353.5
same,luminescence (CellTiter-Glo),SU-DHL-2 [3]; ibrutinib 80 nM,164140.7
same,luminescence (CellTiter-Glo),SU-DHL-2 [3]; ibrutinib 400 nM,159908.6
same,luminescence (CellTiter-Glo),SU-DHL-2 [3]; ibrutinib 2000 nM,154426.1
same,luminescence (CellTiter-Glo),SU-DHL-2 [3]; ibrutinib 10000 nM,111485.8
same,luminescence (CellTiter-Glo),TMD8 [4]; ibrutinib 0.0256 nM,32496.06
same,luminescence (CellTiter-Glo),TMD8 [4]; ibrutinib 0.128 nM,32828.16
same,luminescence (CellTiter-Glo),TMD8 [4]; ibrutinib 0.64 nM,29180.29
same,luminescence (CellTiter-Glo),TMD8 [4]; ibrutinib 3.2 nM,31383.77
same,luminescence (CellTiter-Glo),TMD8 [4]; ibrutinib 16 nM,27190.31
same,luminescence (CellTiter-Glo),TMD8 [4]; ibrutinib 80 nM,28263.05
same,luminescence (CellTiter-Glo),TMD8 [4]; ibrutinib 400 nM,25674.76
same,luminescence (CellTiter-Glo),TMD8 [4]; ibrutinib 2000 nM,23421.20
same,luminescence (CellTiter-Glo),TMD8 [4]; ibrutinib 10000 nM,10819.72
same,luminescence (CellTiter-Glo),U2932 [5]; ibrutinib 0.0256 nM,63123.80
same,luminescence (CellTiter-Glo),U2932 [5]; ibrutinib 0.128 nM,57150.28
same,luminescence (CellTiter-Glo),U2932 [5]; ibrutinib 0.64 nM,53722.16
same,luminescence (CellTiter-Glo),U2932 [5]; ibrutinib 3.2 nM,53031.79
same,luminescence (CellTiter-Glo),U2932 [5]; ibrutinib 16 nM,51023.93
same,luminescence (CellTiter-Glo),U2932 [5]; ibrutinib 80 nM,49777.58
same,luminescence (CellTiter-Glo),U2932 [5]; ibrutinib 400 nM,46009.54
same,luminescence (CellTiter-Glo),U2932 [5]; ibrutinib 2000 nM,46858.01
same,luminescence (CellTiter-Glo),U2932 [5]; ibrutinib 10000 nM,37935.94
same,luminescence (CellTiter-Glo),TMD8 [6]; ibrutinib 0.0512 nM,28324.66
same,luminescence (CellTiter-Glo),TMD8 [6]; ibrutinib 0.256 nM,28516.97
same,luminescence (CellTiter-Glo),TMD8 [6]; ibrutinib 1.28 nM,28727.97
same,luminescence (CellTiter-Glo),TMD8 [6]; ibrutinib 6.4 nM,28578.40
same,luminescence (CellTiter-Glo),TMD8 [6]; ibrutinib 32 nM,28802.75
same,luminescence (CellTiter-Glo),TMD8 [6]; ibrutinib 160 nM,29096.55
same,luminescence (CellTiter-Glo),TMD8 [6]; ibrutinib 800 nM,25963.61
same,luminescence (CellTiter-Glo),TMD8 [6]; ibrutinib 20000 nM,5261.63
same,luminescence (CellTiter-Glo),TMD8 [6]; ibrutinib 40000 nM,22488.80
same,luminescence (CellTiter-Glo),OCI-LY-10 [7]; ibrutinib 0.0512 nM,46968.14
same,luminescence (CellTiter-Glo),OCI-LY-10 [7]; ibrutinib 1.28 nM,28222.33
same,luminescence (CellTiter-Glo),OCI-LY-10 [7]; ibrutinib 6.4 nM,17144.41
same,luminescence (CellTiter-Glo),OCI-LY-10 [7]; ibrutinib 32 nM,14003.51
same,luminescence (CellTiter-Glo),OCI-LY-10 [7]; ibrutinib 160 nM,13712.84
same,luminescence (CellTiter-Glo),OCI-LY-10 [7]; ibrutinib 800 nM,14708.66
same,luminescence (CellTiter-Glo),OCI-LY-10 [7]; ibrutinib 20000 nM,14261.89
same,luminescence (CellTiter-Glo),OCI-LY-10 [7]; ibrutinib 40000 nM,15817.53
same,luminescence (CellTiter-Glo),OCI-LY-3 [8]; ibrutinib 0.0512 nM,80095.49
same,luminescence (CellTiter-Glo),OCI-LY-3 [8]; ibrutinib 0.256 nM,81910.97
same,luminescence (CellTiter-Glo),OCI-LY-3 [8]; ibrutinib 1.28 nM,89730.66
same,luminescence (CellTiter-Glo),OCI-LY-3 [8]; ibrutinib 6.4 nM,81709.84
same,luminescence (CellTiter-Glo),OCI-LY-3 [8]; ibrutinib 32 nM,80596.96
same,luminescence (CellTiter-Glo),OCI-LY-3 [8]; ibrutinib 160 nM,84190.37
same,luminescence (CellTiter-Glo),OCI-LY-3 [8]; ibrutinib 800 nM,82227.41
same,luminescence (CellTiter-Glo),OCI-LY-3 [8]; ibrutinib 20000 nM,69084.64
same,luminescence (CellTiter-Glo),OCI-LY-3 [8]; ibrutinib 40000 nM,75112.98
same,luminescence (CellTiter-Glo),HBL-1; ibrutinib 0.0512 nM,46288.31
same,luminescence (CellTiter-Glo),HBL-1; ibrutinib 0.256 nM,42826.48
same,luminescence (CellTiter-Glo),HBL-1; ibrutinib 1.28 nM,43461.99
same,luminescence (CellTiter-Glo),HBL-1; ibrutinib 6.4 nM,38857.83
same,luminescence (CellTiter-Glo),HBL-1; ibrutinib 32 nM,35516.66
same,luminescence (CellTiter-Glo),HBL-1; ibrutinib 160 nM,35090.31
same,luminescence (CellTiter-Glo),HBL-1; ibrutinib 800 nM,35103.71
same,luminescence (CellTiter-Glo),HBL-1; ibrutinib 20000 nM,16831.87
same,luminescence (CellTiter-Glo),HBL-1; ibrutinib 40000 nM,36806.47
same,luminescence (CellTiter-Glo),U2932 [9]; ibrutinib 0.0512 nM,62396.81
same,luminescence (CellTiter-Glo),U2932 [9]; ibrutinib 0.256 nM,60528.12
same,luminescence (CellTiter-Glo),U2932 [9]; ibrutinib 1.28 nM,60811.50
same,luminescence (CellTiter-Glo),U2932 [9]; ibrutinib 6.4 nM,58640.71
same,luminescence (CellTiter-Glo),U2932 [9]; ibrutinib 32 nM,57009.94
same,luminescence (CellTiter-Glo),U2932 [9]; ibrutinib 160 nM,55090.45
same,luminescence (CellTiter-Glo),U2932 [9]; ibrutinib 800 nM,54579.83
same,luminescence (CellTiter-Glo),U2932 [9]; ibrutinib 20000 nM,18900.83
same,luminescence (CellTiter-Glo),U2932 [9]; ibrutinib 40000 nM,55951.28
same,luminescence (CellTiter-Glo),SU-DHL-2 [10]; ibrutinib 0.0512 nM,168606.0
same,luminescence (CellTiter-Glo),SU-DHL-2 [10]; ibrutinib 0.256 nM,180865.8
same,luminescence (CellTiter-Glo),SU-DHL-2 [10]; ibrutinib 1.28 nM,185508.3
same,luminescence (CellTiter-Glo),SU-DHL-2 [10]; ibrutinib 6.4 nM,178437.4
same,luminescence (CellTiter-Glo),SU-DHL-2 [10]; ibrutinib 32 nM,180464.1
same,luminescence (CellTiter-Glo),SU-DHL-2 [10]; ibrutinib 160 nM,183505.7
same,luminescence (CellTiter-Glo),SU-DHL-2 [10]; ibrutinib 800 nM,181165.6
same,luminescence (CellTiter-Glo),SU-DHL-2 [10]; ibrutinib 20000 nM,4650.6
same,luminescence (CellTiter-Glo),SU-DHL-2 [10]; ibrutinib 40000 nM,180616.8
same,EC50,[11],76 nM
same,EC50,[12],> 1000 nM
same,EC50,[13],> 1000 nM
same,EC50,[14],> 1000 nM
